Bounds are passed on as bounds.

Common to all, as to assay type: cell-based
Assay [1] relates to bacterial mix: Escherichia coli DSM 1576, Alcaligenes faecalis DSM 13644, Pseudomonas aeuginosa ATCC 15442, Staphylococcus aureus ATCC 6538, Burkholderia …. Briefly: Preservative activity of a basic composition (10% PG in water, pH 7) with 2-phenoxyethanol against bacterial contamination (Example 2.1). The note with it: 10% PG + 0.36% PE + 0.04% amide. Here is the method:
An aqueous composition of pH 7 comprising 10% by weight of propyleneglycol (PG) as organic solvent, 0.36% by weight of 2-phenoxyethanol (PE) as antimicrobial and 0.04% by weight of the amide listed in the below table was tested for its preserving activity against bacterial contamination (the weight percentages relate to the total weight of the composition). For this purpose, the samples were contaminated with a bacterial mix consisting of: • Escherichia coli DSM 1576 • Alcaligenes faecalis DSM 13644 • Pseudomonas aeuginosa ATCC 15442 • Staphylococcus aureus ATCC 6538 • Burkholderia cepacia DSM 7288 • Pseudomonas putida DSM 12735
The samples were inoculated with the bacterial mix at day 0, 7 and 14 to obtain 10E+06 to 10E+07 CFU/ml inoculation in the test samples (compositions listed in the below table) consisting of 10% by weight of propylene glycol in water and stored at 25° C. for 21 days.
(§1) CFU was determined before re-inoculation at days 7 and 14, and on day 21.

Assay [2] has as its system fungal mix: Aspergillus brasiliensis DSM 1988, Rhodotorula mucilaginosa DSM 13621, Yarrowia lipolytica DSM 8218. Briefly: Preservative activity in a manual dishwashing composition (MDW, pH 7.1) with 2.0% 2-phenoxyethanol against fungal mix (Example 1.3). The note with it: for d7 [CFU/ml]: day 7; for d14 [CFU/ml]: day 14; for d21 [CFU/ml]: day 21. Here is the method: A manual dish wash detergent (MDW) of pH 7.1 containing the following components was used:
(§2) The samples were contaminated with a fungal mix consisting of: • Aspergillus brasiliensis DSM 1988 • Rhodotorula mucilaginosa DSM 13621 • Yarrowia lipolytica DSM 8218
The samples were inoculated with the fungal mix at day 0 and 7 to obtain 1-3×10E+05 CFU/ml inoculation in the test sample consisting of the above-defined dish wash detergent MDW and stored at 25° C. for 21 days. CFU was determined before re-inoculation at day 7, and on days 14 and 21.
Any CFU value at d7, d14 or d21 obtained with a MDW sample of the invention containing 2-phenoxyethanol and amide (MDW+2.0% PE+1% of Amide) lower than the respective value of the “comparative 2” example (MDW+2.0% by weight of 2-phenoxyethanol) indicates a better performance of the inventive combination of 2-phenoxyethanol with the amide.

The subject of assay [3] is fungal mix (including yeasts and molds): Aspergillus brasiliensis DSM 1988, Rhodotorula mucilaginosa DSM 13621, Yarrowia lipolytica DSM 8218. Briefly: Preservative activity of a basic composition (10% PG in water, pH 7) with 2-phenoxyethanol against fungal contamination (Example 1.1). Conditions: 25° C.; for d21 [CFU/ml]: day 21. Here is the method: An aqueous composition of pH 7 comprising 10% by weight of propyleneglycol (PG) as organic solvent, 0.36% by weight of 2-phenoxyethanol (PE) as antimicrobial and 0.04% by weight of the amide listed in the below table was tested for its preserving activity against fungal contamination (the percentages are weight percent and relate to the total weight of the composition). For this purpose, the samples were contaminated with a fungal mix (including yeasts and molds) consisting of: • Aspergillus brasiliensis DS M 1988 • Rhodotorula mucilaginosa DSM 13621 • Yarrowia lipolytica DS M 8218
To control the efficacy, following control compositions were tested: • “Reference”, consisting of only 10% by weight of propylene glycol in water • “Comparative 1” containing 10% by weight of propylene glycol and amide in the given concentration, but no 2-phenoxyethanol • […] in the given concentration, but no amide.
The samples were inoculated with the fungal mix at day 0, 7 and 14 to obtain a cell density in the range of 1-3×10E+05 CFU/ml (CFU=colony forming units) in the test samples (compositions listed in the below table) and stored at 25° C. for 21 days.
as §1

The test system of assay [4] is fungus Aspergillus brasiliensis DSM 1988. Kind of assay: Preservative activity in an enzyme (mannanase) solution of pH 6 with 2-phenoxyethanol (Example 1.4). The note with it: for d0 [CFU/ml]: day 0 (inoculation); for d2 [CFU/ml]: day 2; for d7 [CFU/ml]: day 7; for d14 [CFU/ml]: day 14; for d15 [CFU/ml]: day 15 (after re-inoculation); for d22 [CFU/ml]: day 22; for d29 [CFU/ml]: day 29. Here is the method:
A enzyme solution of pH 6 containing the hydrolase mannanase of the following composition was used:
The samples were contaminated with the fungus Aspergillus brasiliensis DSM 1988.
The samples were inoculated with the fungus at day 0 and 15 to obtain 1-3×10E+05 CFU/ml inoculation in the test sample consisting of the above-defined enzyme solution and stored at 25° C. for 29 days. CFU was determined at days 0, 2, 7, 14, 15 (after re-inoculation), 22 and 29 (abbreviated d0, d2, d7, d14, d15, d22, d29).
Any CFU value at d2, d7, d14, d22 or d29 obtained with an enzyme solution sample of the invention containing 2-phenoxyethanol and amide (enzyme solution+0.7% PE+0.07% of amide) lower than the respective value of the comparative example (enzyme solution+0.7% by weight of 2-phenoxyethanol) indicates a better performance of the inventive combination of 2-phenoxyethanol with the amide.
The amide used was N,N-dimethyl-n-decanoyl amide (=n-decanoyl-N,N-dimethylamide).

Assay [5] deals with fungal mix: Aspergillus brasiliensis DSM 1988, Rhodotorula mucilaginosa DSM 13621, Yarrowia lipolytica DSM 8218. Kind of assay: Preservative activity in a diluted non-ionic surfactant solution (1% Lutensol ON 70, pH 7.0) with 2-phenoxyethanol against fungal mix (Example 1.6). The note with it: Surfactant solution + 0.81% PE, no amide (Comparative 2).
Source text: A surfactant solution in phosphate buffer of pH 7.0 containing 1% by weight of Lutensol ON 70, a C10-fatty alcohol ethoxylated with 7EO, was used.
as §2
The samples were inoculated with the fungal mix at day 0 and 7 to obtain 1-3×10E+05 CFU/ml inoculation in the test sample consisting of the above-defined surfactant solution and stored at 25° C. for 14 days. CFU was determined before re-inoculation at day 7, and on day 14.
Any CFU value at d7 and d14 obtained with a surfactant solution sample of the invention containing 2-phenoxyethanol and amide (surfactant solution+0.81% PE+0.09% of amide) lower than the respective value of the “comparative 2” example (surfactant solution+0.81% by weight of 2-phenoxyethanol) indicates a better performance of the inventive combination of 2-phenoxyethanol with the amide.

Setting [6] is: MDW + 1.0% amide, no PE (Comparative 1).
The mark [7] stands for this setting: Enzyme solution + 0.7% PE + 0.07% amide.
The mark [8] stands for this setting: MDW + 2.0% PE, no amide (Comparative 2).
The mark [9] stands for this setting: Enzyme solution + 0.7% PE, no amide (Comparative).

With `CCCCCCCCCC(=O)N(C)C` [n-Decanoyl-N,N-dimethylamide], the “d7 [CFU/ml]” value in assay [1] (day 7) was under 10 CFU/ml; in assay [2] (setting [6]) it was 50,500 CFU/ml; in assay [2] (MDW + 2.0% PE + 1.0% amide), 19,000 CFU/ml; in assay [3] (10% PG + 0.36% PE + 0.04% Amide in water, pH 7, fungal mix inoculated at day 0, 7 and 14 (1-3x10E+05 CFU/ml), day 7 before re-inoculation), under 10 CFU/ml; in assay [4] (setting [7]), 240 CFU/ml. The “d14 [CFU/ml]” value in assay [1] (day 14) was under 10 CFU/ml; in assay [2] (setting [6]), 97,500 CFU/ml; in assay [2] (MDW + 2.0% PE + 1.0% amide), 10,000 CFU/ml; in assay [3] (10% PG + 0.36% PE + 0.04% Amide in water, pH 7, fungal mix inoculated at day 0, 7 and 14, day 14 before re-inoculation) it was under 10 CFU/ml; in assay [4] (setting [7]), 30 CFU/ml. Further, the “d21 [CFU/ml]” value in assay [1] (day 21) was under 10 CFU/ml; in assay [2] (setting [6]), 83,000 CFU/ml; in assay [2] (MDW + 2.0% PE + 1.0% amide) it was 5,000 CFU/ml; in assay [3] (10% PG + 0.36% PE + 0.04% Amide in water, pH 7, fungal mix inoculated at day 0, 7 and 14) it was under 10 CFU/ml. Further, the “d0 [CFU/ml]” value in assay [4] (Enzyme solution + 0.7% PE + 0.07% amide (N,N-dimethyl-n-decanoyl amide)) is 110,000 CFU/ml. Besides, the “d2 [CFU/ml]” value in assay [4] (setting [7]) is listed as 80,000 CFU/ml. The “d15 [CFU/ml]” value in assay [4] (setting [7]) is recorded as 300,000 CFU/ml. For the same molecule, the “d22 [CFU/ml]” value in assay [4] (setting [7]) is on record as 14,000 CFU/ml. The “d29 [CFU/ml]” value in assay [4] (setting [7]) came to 70 CFU/ml.
For `OCCOc1ccccc1` [PE, 2-phenoxyethanol, reference compound], in assay [2] (setting [8]), the “d7 [CFU/ml]” value was 27,500 CFU/ml, the “d14 [CFU/ml]” value is listed as 22,000 CFU/ml and the “d21 [CFU/ml]” value is recorded as 18,000 CFU/ml. Further, in assay [5] (day 7), the “d7 [CFU/ml]” value is 16,500 CFU/ml. Moreover, the “d14 [CFU/ml]” value in assay [5] (day 14) is reported as 45,00 CFU/ml. Also, in assay [3] (10% PG + 0.4% PE, no amide (Comparative 2), fungal mix inoculated at day 0, 7 and 14, day 7), the “d7 [CFU/ml]” value was 10,000 CFU/ml. In addition, the “d14 [CFU/ml]” value in assay [3] (10% PG + 0.4% PE, no amide (Comparative 2), fungal mix inoculated at day 0, 7 and 14, day 14) is 16,000 CFU/ml. The “d21 [CFU/ml]” value in assay [3] (10% PG + 0.4% PE, no amide (Comparative 2), fungal mix inoculated at day 0, 7 and 14) was 38,500 CFU/ml. Moreover, in assay [4] (setting [9]), the “d0 [CFU/ml]” value is 110,000 CFU/ml, the “d2 [CFU/ml]” value is 92,000 CFU/ml, the “d7 [CFU/ml]” value is 29,000 CFU/ml and the “d14 [CFU/ml]” value is 21,000 CFU/ml. In assay [4] (setting [9]), the “d15 [CFU/ml]” value is recorded as 300,000 CFU/ml, the “d22 [CFU/ml]” value is reported as 67,000 CFU/ml and the “d29 [CFU/ml]” value was 100,000 CFU/ml.

(Values after patent US20250040539A1, “COMPOSITION COMPRISING AN ANTIMICROBIAL AGENT AND A CARBOXAMIDE” (BASF SE, priority 2021, published 2025).)
